The target in data set [1] is T1, AmGSTD1 (Apis mellifera, UniProt A0A8U0Y9D4).
T1 sequence (A0A8U0Y9D4 1-240): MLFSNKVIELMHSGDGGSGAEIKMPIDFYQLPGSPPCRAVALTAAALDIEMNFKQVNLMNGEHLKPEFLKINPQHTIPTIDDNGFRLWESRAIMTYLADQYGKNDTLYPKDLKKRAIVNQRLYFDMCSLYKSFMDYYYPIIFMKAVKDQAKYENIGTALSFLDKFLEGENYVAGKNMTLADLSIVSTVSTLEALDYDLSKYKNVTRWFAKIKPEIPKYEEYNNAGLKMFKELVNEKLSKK
Nature of the data set: absorbance initial rates, Michaelis-Menten. To be noted: 4 mM GSH; 100 mM KPi pH 6.5; 30 °C.

Data set [2] addresses T1, AmGSTD1. Nature of the data set: ANS displacement fluorescence, Ki from IC50. It counts as binding.
For data set [3], the target named is T1, AmGSTD1. The data set is described as follows: ANS displacement fluorescence. The format is binding.
The target in data set [4] is T1, AmGSTD1. The data set is described as follows: fluorescence saturation binding.
Substrate in data set [5]: CCCCCC(O)/C=C/C=O
The data set is described as follows: purified protein. The conditions noted are these: 0.5 mM GSH, 100 mM KPi pH 6.5, 30 °C.

Substrate in data set [6]: S=C=NCCc1ccccc1
Nature of the data set: purified protein. To be noted: 4 mM GSH, 100 mM KPi pH 6.5, 30 °C.

Substrate in data set [7]: CC(=O)Oc1ccc([N+](=O)[O-])cc1
The data set is described as follows: purified protein. The conditions noted are these: 4 mM GSH, 100 mM KPi pH 6.5, 30 °C.

The Km is the substrate concentration at which the rate is half of its maximum. In general, Ki refers to the equilibrium dissociation constant of an inhibitor or competing ligand from its target. The term IC50 denotes the point on the concentration scale where inhibition reaches its midpoint. Consider `O=[N+]([O-])c1ccc(Cl)c([N+](=O)[O-])c1` [CDNB], for which the Km in data set [1] stood at 525 ± 70 µM. This molecule also returned an inhibition constant Ki in data set [2] of 49.6 µM. Also, in data set [3], the half-maximal inhibitory concentration (IC50) stood at 1220 ± 55 µM.
As to `C=C(CC)C(=O)c1ccc(OCC(=O)O)c(Cl)c1Cl` [ethacrynic acid], the Ki in data set [2] came out at 41.5 µM. The same molecule had an IC50 in data set [3] of 1020 ± 40 µM.
In the case of `O=C(O)COc1nc(Cl)c(Cl)cc1Cl` [triclopyr], the inhibition constant Ki in data set [2] turned out to be 76.1 µM. The same molecule showed an IC50 in data set [3] of 1860 ± 190 µM.
Turning to `CCCN=C=S` [PITC], the Michaelis constant (Km) in data set [1] stood at 1100 ± 140 µM.
For `CCCCC(C#N)(Cn1cncn1)c1ccc(Cl)cc1` (stereo not shown) [myclobutanil], the inhibition constant Ki in data set [2] came to 148 µM.
On to `Oc1nc(Cl)c(Cl)cc1Cl` [TCP], for which affinity in data set [2] was put at a Ki of 25 µM. Further, the IC50 in data set [3] came to 613 ± 27 µM.
A word on the Kd: it is the free concentration of one partner at which half of the binding sites on the other are occupied at equilibrium, for simple one-to-one binding. As to `O=S(=O)(O)c1cccc2cccc(Nc3ccccc3)c12` [ANS], in data set [4], the dissociation constant (Kd) was 2.09 ± 0.102 µM.
Turning to `O=[N+]([O-])NC1=NCCN1Cc1ccc(Cl)nc1` [imidacloprid], in data set [2], affinity was put at a Ki of 130 µM.
In data set [2], `O=C(O)COc1ccc(Cl)cc1Cl` [2,4-D] displayed a Ki of 41.4 µM. In data set [3], the IC50 was found to be 1010 ± 56 µM.
Regarding `O=Cc1cccc(Oc2ccccc2)c1` [3-phenoxybenzaldehyde], in data set [2], the affinity corresponds to a Ki of 302 µM.

B1: AmGSTD1 (Apis mellifera) (protein)
chain: T1 sequence (A0A8U0Y9D4 1-240)
The kcat is the number of substrate molecules converted per active site and unit of time at saturation. On to B1, for which the Km in data set [5] worked out at 106 ± 34 µM; in data set [6] it was 819 ± 100 µM; in data set [7], 1160 ± 90 µM. The catalytic constant (kcat) in data set [5] was found to be 0.345 ± 0.0433 s⁻¹; in data set [6] it was 3.93 ± 0.2 s⁻¹; in data set [7], 6.7 ± 0.233 s⁻¹.

The values are drawn from article doi:10.1101/2023.07.20.549922v1 (biorxiv, 2023).
